Assay: method code SF-RC, from DOI: 10.1021/acs.jmedchem.5b00440, PMID: 26327138
Details: pH 7.4

logD	Compound
3.11	CN(C)c1ccc(/C=C/c2nc3ccc(I)cc3[nH]2)cn1
3.25	Ic1ccc2nc(/C=C/c3ccccc3)[nH]c2c1
3.95	Ic1ccc2nc(/C=C/c3ccccc3)oc2c1
2.34	Ic1ccc2cc(/C=C/c3ccccc3)sc2c1
2.4	CN(C)c1ccc(C=Cc2cc3ccc(I)cc3s2)cc1
3.15	CN(C)c1ccc(/C=C/c2nc3ccc(I)cc3s2)cc1
3.35	Ic1ccc2nc(/C=C/c3cccnc3)oc2c1
3.15	Ic1ccc2nc(/C=C/c3cccnc3)[nH]c2c1
2.11	CN(C)c1ccc(/C=C/c2cc3ccc(I)cc3o2)cc1
2.95	Ic1ccc2cc(/C=C/c3cccnc3)sc2c1
2.85	CN(C)c1ccc(/C=C/c2cc3ccc(I)cc3s2)cn1
2.38	Ic1ccc2cc(/C=C/c3ccccc3)oc2c1
3.25	CN(C)c1ccc(/C=C/c2nc3ccc(I)cc3s2)cn1
3.13	Ic1ccc2cc(/C=C/c3cccnc3)oc2c1

Source: the SangsterLogP compilation
